{"source": "patent US20020168365A1", "about": "“Method for modulating granzyme B uptake and for identifying modulators thereof” (priority 2000, published 2002)", "key": {"Jurkat cells [1]": {"system": "Jurkat cells", "test": "TUNEL and annexin V apoptosis assays with grB and AD", "assay_type": "cell-based, human", "details": "for percentage of TUNEL positive cells after incubation with grB and AD / percentage of annexin V positive cells after incubation with grB and AD: with 25 mM monosaccharide; for TUNEL positive cells: 3 hr with pretreated grB and AD", "description": "(§1) GrB was treated for 1 hr at 37° C. in a phosphate-free (saline) or a high-phosphate (64.5 mM Na2HPO4.7H2O, 21 mM KH2PO4) buffer with calf intestinal alkaline phosphatase (1-10 U), 20 nM of the 37 kDa catalytic subunit of recombinant protein phosphatase-1 (Bagu et al, 1997), or with vehicle control. Cells were then incubated with the treated grB at 4° C. for 30-60 min. For the TUNEL or annexin V assays, cells were then washed twice before incubation at 37° C. with AD.\n(§2) M6P and various other monosaccharides at different concentrations were added to cells for 15 min at 4° C. before the addition of labeled grB, or at room temperature before the addition of grB and AD.\n(§3) GrB was incubated with sCI-MPR at various concentrations in PBS/0.1% BSA for 30 min at 4° C. Subsequently, cells were incubated with grB/sCI-MPR for 30-60 min at 4° C. and washed twice, before analysis of binding, or before the addition of AD for TUNEL and annexin V analysis.\nFor the in vitro killing assays, 10 pfu per cell of replication-deficient adenovirus (AD) were added subsequent to grB addition. Analysis of DNA fragmentation by TUNEL analysis has been described previously (Heibein et al., 1999). TUNEL materials (Roche Diagnostics) were used as per the manufacturer's instructions. Phosphatidylserine externalization was measured as previously described (Heibein et al., 1999) using annexin V-FITC (PharMingen). Percent specific TUNEL/annexin V positive cells was calculated as: [(% positive labeling cells with grB and AD-% positive labeling cells without grB and AD)/(100-% positive labeling cells without grB and AD)]×100.\nCells were resuspended at 10^6 cells/ml in 0.1% BSA/DMEM. Adenovirus (10 PFU/cell) and granzyme B (grB) were added directly to the cell suspension. Cells were incubated at 37° C. for 3 h. For staurosporine killing, cells were resuspended at 10^6 cells/ml in their normal growth medium and staurosporine (2.5 μM) was added directly to the cell suspension. Cells were incubated at 37° C. for 2, 4 and 8 h.\n(§4) DNA fragmentation was monitored by flow cytometric analysis via the terminal deoxynucleotidyltransferase-mediated dUTP-biotin nick end labeling (TUNEL) method. Flow cytometric analysis was performed on a Becton Dickinson FACScanθ flow cytometer equipped with an argon-ion laser with 15 mW of excitation at 488 nm. Emission wavelengths were detected through the FL1 channel. Data were acquired on 10,000 cells per sample with light scatter signals at linear gain and fluorescence signals at logarithmic gain. Percent specific TUNEL positive cells was calculated as follows: [(% positive labeling cells with grB and AD−% positive labeling cells without grB and AD)/(AD−% positive labeling cells without grB and AD)]×100.\nas §4, with “Phosphatidylserine externalization” for “DNA fragmentation”, “monitored using the ApoAlertθ annexin V apoptosis kit (Clontech) according to the protocol provided” for “monitored”, “by” for “by flow cytometric analysis via”, “manufacturer.” for “terminal deoxynucleotidyltransferase-mediated dUTP-biotin nick end labeling (TUNEL) method.”, “Annexin V” for “TUNEL”"}, "Jurkat cells [2]": {"system": "Jurkat cells", "test": "GrB binding assay (flow cytometry, labeled grB at 4° C.)", "parameters": "species or system human", "details": "for effect on grB binding: monosaccharide with labeled grB, 4° C. (FIG. 3A)", "description": "Cells (1-2×10^5) were washed twice and resuspended in buffer before the addition of grB-biotin or -OG in a final volume of 20 μl for a 30-60 min incubation and washed again twice. In the case of grB-biotin, cells were then incubated with streptavidin-cychrome for 20 min and washed twice. Unless otherwise indicated, ˜25 ng grB-biotin or -OG was used to label cells. All steps of the assay were carried out at 4° C. to prevent intracellular uptake of grB. PBS/0.1% BSA buffer was used throughout the procedure. In some cases, results are presented as the relative MFI, which represents the MFI of the grB-labeled population minus the MFI of the unlabeled population.\nas §1, §2, §3"}, "[3]": {"system": "AD containing a β-galactosidase insert", "test": "Infection of AD containing a β-galactosidase insert", "assay_type": "cell-based"}, "[4]": {"system": "MPR^− and CI-MPR^+ target cells", "test": "CTL killing assays (^3H-thymidine release and ^51Cr-release)", "assay_type": "cell-based, murine", "details": "Mus musculus; CTL effectors with targets in the presence of M6P (data not shown); read-out: half-maximal inhibition of target cell DNA fragmentation", "description": "The ^51Cr- (lysis) and ^3H-thymidine (DNA fragmentation) release assays have been previously described (Darmon et al., 1996). Target cells (1×10^4 cells/well for the ^51Cr-release assay and 5×10^4 cells/well for the ^3H-thymidine-release assay) were incubated with CTL at various E:T ratios (effector:target) in the presence or absence of blocking murine- (1 μg/ml) or human- (200 ng/ml) anti-Fas mAb. Data from one experiment represent the mean of data from triplicate samples. Typically, spontaneous ^51Cr-release and DNA fragmentation was less than 10% and 5%, respectively. Percent specific lysis and DNA fragmentation was calculated as: [(sample cpm−spontaneous cpm)/(total cpm−spontaneous cpm)]×100."}, "CI-MPR^+ cells": {"system": "CI-MPR^+ cells", "test": "GrB uptake assay (confocal microscopy, grB-OG at 37° C.)", "assay_type": "cell-based, murine L cells transfected with human CI-MPR", "details": "20 mM M6P", "description": "Cells on coverslips were incubated for 20 min at 37° C. with DMEM/0.1% BSA containing 25 ng grB-OG that was untreated, mock-treated, or alkaline phosphatase-treated as described above. For the M6P inhibition studies, cells were treated with 20 mM M6P in DMEM/0.1% BSA for 10 min at 37° C., before the addition of grB-OG, as above. Cells were then washed twice with PBS/0.1% BSA, fixed with 2% paraformaldehyde in PBS, and allowed to dry briefly before the coverslips were mounted and examined by confocal microscopy. Imaging was performed with a Zeiss Axiovertθ 100M LSM510 laser scan microscope and analyzed using LSM510 software."}, "MPRs in all cell lines": {"system": "MPRs in all cell lines", "test": "GrB-OG binding after M6P preincubation (Example 2, FIG. 8)", "details": "20 mM M6P, 37° C., 15 minutes prior to grB-OG", "description": "Cells (1×10^5) were washed twice and resuspended in buffer before addition of grB-biotin or grB-OG in a final volume of 20 μl for a 30-60 min incubation and washed again twice. In the case of grB-biotin, cells were then incubated with streptavidin-cychrome for 20 min and washed twice. In order to measure cell surface binding, all steps of the binding assay were carried out at 4° C. to prevent intracellular uptake of grB. 0.1% BSA/PBS buffer was used throughout the procedure. All steps of the grB uptake assay were carried out at 37° C. Flow cytometric analysis was performed on a Becton Dickinson FACScanθ flow cytometer equipped with an argon-ion laser with 15 mW of excitation at 488 nm. Emission wavelengths were detected through the FL1 and FL3 channel for grB-OG and grB-biotin, respectively. Data were acquired on 10,000 cells per sample with light scatter signals at linear gain and fluorescence signals at logarithmic gain. Results are presented as the relative MFI, which represents the MFI of the grB-labeled population minus the MFI of the unlabeled population. M6P at 20 mM was added to cells for 15 min at 37° C. before the addition of labeled grB."}, "[5]": {"molecular_target": "cell surface MPR on Jurkat cells", "test": "cell-based or functional assay"}, "[6]": {"details": "preincubation of grB with soluble CI-MPR, Jurkat cells (data not shown)"}}}
{"compound": "O=C[C@H](O)[C@@H](O)[C@H](O)[C@H](O)COP(=O)(O)O", "note": "[D-glucose 6-phosphate, reference compound]", "values": [{"measurement": "percentage of TUNEL positive cells after incubation with grB and AD", "setting": "Jurkat cells [1]; 3 hr, Jurkat cells", "result": 60, "unit": "%"}, {"measurement": "percentage of annexin V positive cells after incubation with grB and AD", "setting": "Jurkat cells [1]; 3 hr, Jurkat cells", "result": 41, "unit": "%"}, {"measurement": "concentrations at which inhibitory effect on grB binding was evident", "setting": "Jurkat cells [2]; labeled grB, 4° C.", "result": "above 25 mM"}, {"measurement": "effect on grB binding", "setting": "Jurkat cells [2]", "result": "slight inhibitory effect"}]}
{"compound": "O=C[C@H](O)[C@@H](O)[C@H](O)[C@H](O)CO", "note": "[D-glucose, reference compound]", "values": [{"measurement": "percentage of TUNEL positive cells after incubation with grB and AD", "setting": "Jurkat cells [1]; 3 hr, Jurkat cells", "result": 66, "unit": "%"}, {"measurement": "percentage of annexin V positive cells after incubation with grB and AD", "setting": "Jurkat cells [1]; 3 hr, Jurkat cells", "result": 40, "unit": "%"}, {"measurement": "effect on grB binding", "setting": "Jurkat cells [2]", "result": "no effect"}]}
{"compound": "O=C[C@@H](O)[C@@H](O)[C@H](O)[C@H](O)CO", "note": "[D-mannose, reference compound]", "values": [{"measurement": "percentage of TUNEL positive cells after incubation with grB and AD", "setting": "Jurkat cells [1]; 3 hr, Jurkat cells", "result": 52, "unit": "%"}, {"measurement": "percentage of annexin V positive cells after incubation with grB and AD", "setting": "Jurkat cells [1]; 3 hr, Jurkat cells", "result": 32, "unit": "%"}, {"measurement": "effect on grB binding", "setting": "Jurkat cells [2]", "result": "no effect"}]}
{"compound": "O=C[C@@H](O)[C@@H](O)[C@H](O)[C@H](O)COP(=O)(O)O", "note": "[M6P, mannose 6-phosphate]", "values": [{"measurement": "effect on infection of AD containing a β-galactosidase insert", "setting": "[3]", "result": "No effect"}, {"measurement": "IC50", "setting": "[4]", "result": "> 25000", "unit": "µM"}, {"measurement": "concentration that markedly reduced in a dose-dependent manner the percentage of TUNEL or annexin V positive cells", "setting": "Jurkat cells [1]; Jurkat cells, grB and AD, 3 hr", "result": "≥ 200", "unit": "µM"}, {"measurement": "uptake of grB (grB detected within the cells)", "setting": "CI-MPR^+ cells", "result": "essentially no grB could be detected within the cells"}, {"measurement": "binding of grB to the MPRs", "setting": "MPRs in all cell lines", "result": "significantly reduced binding"}, {"measurement": "binding of grB to Jurkat cells", "setting": "Jurkat cells [2]; M6P at 20 mM, 4° C.", "result": "considerably reduced binding"}, {"measurement": "IC50", "setting": "Jurkat cells [2]; labeled grB, 4° C., flow cytometry, Jurkat cells (FIG. 3A), read-out: half-maximal inhibition of binding of grB", "result": 1000, "unit": "µM"}]}
{"compound": "dephosphorylated grB: grB treated with calf intestinal alkaline phosphatase in phosphate-free buffer", "values": [{"measurement": "TUNEL positive cells", "setting": "Jurkat cells [1]; Jurkat cells", "result": "Less than 5%"}]}
{"compound": "dephosphorylated human granzyme B (treated with calf intestinal alkaline phosphatase in phosphate-free buffer) (from UniProt P10144 21-247) (enzyme)", "values": [{"measurement": "TUNEL positive Jurkat cells after 3 hr with phosphatase-treated grB and AD", "setting": "[5]", "result": "< 5", "unit": "%"}]}
{"compound": "grB pretreated with alkaline phosphatase in phosphate-containing buffer: control grB treated with phosphatase in a phosphate-containing buffer to inhibit phosphatase activity", "values": [{"measurement": "TUNEL positive cells", "setting": "Jurkat cells [1]; Jurkat cells", "result": 50, "unit": "%"}]}
{"compound": "human granzyme B purified from the cytolytic granules of YT-Indy cells (from UniProt P10144 21-247) (enzyme)", "values": [{"measurement": "TUNEL positive Jurkat cells after 3 hr with grB (pretreated with alkaline phosphatase in phosphate-containing buffer) and AD", "setting": "[5]", "result": 50, "unit": "%"}]}
{"compound": "soluble CI-MPR: Human soluble cation-independent mannose 6-phosphate receptor (Valenzano et al., 1995)", "values": [{"measurement": "concentration that markedly reduced in a dose-dependent manner grB/AD-mediated apoptosis", "setting": "Jurkat cells [1]; [6]", "result": "≥ 100", "unit": "µg/mL"}, {"measurement": "concentration that markedly reduced in a dose-dependent manner the cell surface binding of grB", "setting": "Jurkat cells [2]; [6]", "result": "≥ 100", "unit": "µg/mL"}]}
